Test results from PubChem BioAssay (NCI).
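Compound exposure: 48 hours, 5 concentrations, 96-well plates. GI50: concentration for 50% inhibition of growth. TGI: concentration producing complete growth inhibition.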

Legend:
Assay in all cases: NCI-60 cell line screen, 48 h
[1] = test system: SK-MEL-5 melanoma
[2] = test system: BT-549 breast
[3] = test system: A498 renal
[4] = test system: ACHN renal
[5] = test system: COLO 205 colon
[6] = test system: SNB-75 CNS
[7] = test system: SNB-19 CNS
[8] = test system: UACC-257 melanoma
[9] = test system: NCI-H23 lung
[10] = test system: OVCAR-3 ovarian
[11] = test system: SR leukemia
[12] = test system: MDA-MB-231 breast
[13] = test system: UO-31 renal
[14] = test system: HCC-2998 colon
[15] = test system: SF-539 CNS
[16] = test system: MDA-MB-435
[17] = test system: OVCAR-5 ovarian
[18] = test system: 786-0 renal
[19] = test system: UACC-62 melanoma
[20] = test system: A549 NSCLC
[21] = test system: EKVX NSCLC
[22] = test system: PC-3 prostate
[23] = test system: NCI/ADR-RES ovarian
[24] = test system: TK-10 renal
[25] = test system: MCF7 breast
[26] = test system: SF-295 CNS
[27] = test system: MALME-3M melanoma
[28] = test system: KM12 colon
[29] = test system: SK-OV-3 ovarian
[30] = test system: SW-620 colon
[31] = test system: M14 melanoma
[32] = test system: MOLT-4 leukemia
[33] = test system: SF-268 CNS
[34] = test system: LOX IMVI melanoma
[35] = test system: NCI-H460 lung
[36] = test system: HT29 colon
[37] = test system: K-562 leukemia
[38] = test system: HOP-92 NSCLC
[39] = test system: IGROV1 ovarian
[40] = test system: T-47D breast
[41] = test system: SN12C renal
[42] = test system: DU-145 prostate
[43] = test system: RPMI-8226 leukemia
[44] = test system: RXF 393 renal
[45] = test system: HL-60(TB) leukemia
[46] = test system: NCI-H226 lung
[47] = test system: OVCAR-8 ovarian
[48] = test system: CCRF-CEM leukemia
[49] = test system: HCT-116 colon
[50] = test system: HCT-15 colon
[51] = test system: CAKI-1 renal
[52] = test system: U251 CNS
[53] = test system: HS 578T breast
[54] = test system: NCI-H522 lung
[55] = test system: SK-MEL-2 melanoma
[56] = test system: HOP-62 NSCLC

`N#Cc1cccc2c1Sc1ccccc1N2` showed a TGI [1] of 1720 nM, a TGI [2] of 79.8 µM and a TGI [3] of 58.3 µM. For the same compound, the TGI [4] was greater than 100 µM, the TGI [5] was 60.2 µM and the TGI [6] was 3.15 µM. The TGI [7] was greater than 100 µM, the TGI [8] was greater than 100 µM and the TGI [9] was greater than 100 µM. It also gave a TGI [10] greater than 100 µM, a TGI [11] greater than 100 µM and a TGI [12] greater than 100 µM. For the same compound, the TGI [13] was 87.9 µM, the TGI [14] was greater than 100 µM and the TGI [15] was 64.2 µM. It also gave a TGI [16] greater than 100 µM, a TGI [17] of 72.8 µM and a TGI [18] of 67.2 µM. It also gave a TGI [19] greater than 100 µM, a TGI [20] greater than 100 µM and a TGI [21] of 97.4 µM. The TGI [22] was greater than 100 µM, the TGI [23] was greater than 100 µM and the TGI [24] was 75.8 µM. It also gave a TGI [25] greater than 100 µM, a TGI [26] of 69.1 µM and a TGI [27] greater than 100 µM. It also gave a TGI [28] greater than 100 µM, a TGI [29] greater than 100 µM and a TGI [30] greater than 100 µM. It also gave a TGI [31] greater than 100 µM, a TGI [32] of 85.7 µM and a TGI [33] greater than 100 µM. For the same compound, the TGI [34] was 36.5 µM, the TGI [35] was greater than 100 µM and the TGI [36] was greater than 100 µM. For the same compound, the TGI [37] was greater than 100 µM, the TGI [38] was greater than 100 µM and the TGI [39] was greater than 100 µM. The TGI [40] was greater than 100 µM, the TGI [41] was greater than 100 µM and the TGI [42] was greater than 100 µM. For the same compound, the TGI [43] was greater than 100 µM, the TGI [44] was 33.7 µM and the TGI [45] was greater than 100 µM. It also gave a TGI [46] greater than 100 µM, a TGI [47] greater than 100 µM and a TGI [48] greater than 100 µM. For the same compound, the TGI [49] was greater than 100 µM, the TGI [50] was greater than 100 µM and the TGI [51] was greater than 100000 nM. It also gave a TGI [52] greater than 100 µM.
`COC(=O)c1ccc2[nH]c(O)c(C(=Nc3ccc(N(C)C(=O)CN4CCN(C)CC4)cc3)c3ccc(C)cc3)c2c1` gave a GI50 [1] of 1110 nM, a TGI [1] of 2390 nM and a GI50 [2] of 1130 nM. The TGI [2] was 2.45 µM, the GI50 [3] was 458 nM and the TGI [3] was 1.96 µM. It also gave a GI50 [11] of 153 nM, a TGI [11] of 1.34 µM and a GI50 [13] of 353 nM. It also gave a TGI [13] of 1.47 µM, a GI50 [15] of 307 nM and a TGI [15] of 1.18 µM. For the same compound, the GI50 [18] was 336 nM, the TGI [18] was 1.78 µM and the GI50 [27] was 618 nM. For the same compound, the TGI [27] was 1.88 µM, the GI50 [53] was 105 nM and the TGI [53] was 0.977 µM. The GI50 [43] was 494 nM, the TGI [43] was 2.47 µM and the GI50 [44] was 221 nM. For the same compound, the TGI [44] was 1.05 µM, the GI50 [48] was 355 nM and the GI50 [49] was 124 nM. For the same compound, the TGI [49] was 1.27 µM, the GI50 [51] was 132 nM and the TGI [51] was 1480 nM. The GI50 [52] was 571 nM and the TGI [52] was 2 µM.
In the case of `CNC(=O)c1cc(Oc2ccc3nc(NC(=O)Nc4ccc(Cl)c(C(F)(F)F)c4)sc3c2)ccn1`, the GI50 [2] is reported as 2640 nM, the TGI [2] is reported as 9.73 µM and the GI50 [3] is reported as 2490 nM. For the same compound, the TGI [3] was 12.2 µM, the GI50 [4] was 1850 nM and the TGI [4] was 3.8 µM. It also gave a GI50 [6] of 1520 nM, a TGI [6] of 3.24 µM and a GI50 [54] of 2540 nM. For the same compound, the TGI [54] was greater than 100 µM, the GI50 [7] was 2770 nM and the TGI [7] was 10.2 µM. It also gave a GI50 [8] of 3.37 µM, a TGI [8] greater than 100 µM and a GI50 [9] of 2480 nM. The TGI [9] was 8.17 µM, the GI50 [11] was 412 nM and the TGI [11] was 9.1 µM. For the same compound, the GI50 [12] was 1430 nM, the TGI [12] was 4.29 µM and the GI50 [17] was 2460 nM. For the same compound, the TGI [17] was 7.55 µM, the GI50 [18] was 1790 nM and the TGI [18] was 3.4 µM. For the same compound, the GI50 [24] was 2290 nM, the TGI [24] was 4.62 µM and the GI50 [26] was 1790 nM. The TGI [26] was 3.71 µM, the GI50 [28] was 3.41 µM and the TGI [28] was greater than 100 µM. It also gave a GI50 [29] of 1890 nM, a TGI [29] of 4.21 µM and a GI50 [30] of 2990 nM. For the same compound, the TGI [30] was greater than 100 µM, the GI50 [55] was 5.69 µM and the TGI [55] was 47 µM. The GI50 [33] was 2340 nM, the TGI [33] was 16.4 µM and the GI50 [34] was 2680 nM. It also gave a TGI [34] greater than 100 µM, a GI50 [56] of 1940 nM and a TGI [56] of 4.74 µM. For the same compound, the GI50 [38] was 1150 nM, the TGI [38] was 3.24 µM and the GI50 [39] was 2020 nM. The TGI [39] was 5.12 µM, the GI50 [40] was 723 nM and the TGI [40] was 3.65 µM. It also gave a GI50 [41] of 2440 nM, a TGI [41] greater than 100 µM and a GI50 [53] of 1530 nM. It also gave a TGI [53] of 6.27 µM, a GI50 [44] of 1930 nM and a TGI [44] of 4.57 µM. It also gave a GI50 [45] greater than 100 µM, a TGI [45] greater than 100 µM and a GI50 [46] of 2690 nM. It also gave a TGI [46] of 7.47 µM, a GI50 [47] of 2340 nM and a TGI [47] of 5.25 µM. For the same compound, the GI50 [49] was 1890 nM and the TGI [49] was 5.39 µM.
For `NC(N)=N/N=C/c1c(-c2ccc(Cl)c([N+](=O)[O-])c2)nc2sc(Cl)cn12`, the TGI [1] was 15900 nM, the TGI [2] was 3.48 µM and the TGI [54] was 3.07 µM. For the same compound, the TGI [8] was 3.79 µM, the TGI [11] was greater than 100 µM and the TGI [13] was 3.47 µM. The TGI [14] was greater than 100 µM, the TGI [15] was 4.98 µM and the TGI [17] was greater than 100 µM. The TGI [18] was greater than 100 µM, the TGI [20] was 7 µM and the TGI [23] was greater than 100 µM. The TGI [24] was 58.5 µM, the TGI [25] was 6.3 µM and the TGI [27] was 5.58 µM. For the same compound, the TGI [35] was 8.08 µM, the TGI [56] was greater than 100 µM and the TGI [36] was 6.85 µM. For the same compound, the TGI [37] was greater than 100 µM, the TGI [39] was 3.18 µM and the TGI [41] was 4.88 µM. For the same compound, the TGI [53] was 5.54 µM, the TGI [43] was greater than 100 µM and the TGI [45] was greater than 100 µM. It also gave a TGI [46] greater than 100 µM, a TGI [47] of 4.08 µM and a TGI [48] greater than 100 µM. The TGI [49] was greater than 100 µM, the TGI [50] was greater than 100 µM and the TGI [52] was greater than 100 µM.
